# Assays:
# [1] = molecular target: T1, tyrosinase (Homo sapiens, UniProt P14679); experiment: Whitening efficacy test, in vitro cell-based tyrosinase activity (MNT-1 cells); details: 72 hours, final 100 μM GSH, 1 μM Apt G, 0.01% arbutin, L-DOPA, absorbance 475 nm
# T1 sequence (P14679 19-529): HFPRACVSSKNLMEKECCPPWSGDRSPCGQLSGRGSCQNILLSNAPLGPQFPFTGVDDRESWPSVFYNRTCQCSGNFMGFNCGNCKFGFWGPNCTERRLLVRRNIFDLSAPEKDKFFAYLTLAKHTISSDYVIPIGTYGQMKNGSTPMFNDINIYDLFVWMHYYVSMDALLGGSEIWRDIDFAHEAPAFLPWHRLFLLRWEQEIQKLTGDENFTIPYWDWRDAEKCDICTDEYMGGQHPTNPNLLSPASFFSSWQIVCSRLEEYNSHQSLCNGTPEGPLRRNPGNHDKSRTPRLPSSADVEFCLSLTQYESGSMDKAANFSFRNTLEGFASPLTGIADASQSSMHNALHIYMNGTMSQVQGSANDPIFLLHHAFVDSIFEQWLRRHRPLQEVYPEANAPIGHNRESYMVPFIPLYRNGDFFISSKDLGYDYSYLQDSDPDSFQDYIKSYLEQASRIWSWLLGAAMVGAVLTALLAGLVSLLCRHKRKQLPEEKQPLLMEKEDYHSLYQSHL
# Description: The final concentration of each component in this experiment was 100 μM GSH, 1 μM Apt G, 0.01% arbutin,
# 100 μM GSH and 1 μM of the prepared aptamer (molar concentration of 100:1) were added to the media and reacted at room temperature for 30 minutes.
# MNT-1 cells were seeded on a 6-well plate and incubated for 24 hours at 37° C., 5% CO2 incubator.
# After treating each of the prepared samples, the samples were again incubated at 37° C. and 5% CO2 incubator for 72 hours.
# After incubation, ice-cold lysis buffer (RIPA buf.+ protease inhibitor) was used to remove the cells from the plate, and the removed cells were transferred to an EP-tube and centrifuged to remove only the supernatant.
# Lysate, L-DOPA, potassium phosphate buffer (pH6.5) was added to a 96 well plate and mixed (each test group used the same amount of protein through protein quantification).
# After incubation for 1 hour at 37° C., 5% CO2 incubator, absorbance was measured at 475 nm using a plate reader.
# [2] = tested on: tyrosinase; details: final 20 μM GSH; 37° C. 10 minutes; absorbance 490 nm; N=5
# Description: The final concentrations of each component in this experiment were 20 μM GSH, 0.2 μM Apt G, and 0.01% arbutin.
# 300 μM GSH and 3 μM of the prepared aptamer (molar concentration of 100:1) were dissolved in tertiary distilled water and reacted at room temperature for 30 minutes.
# In a 96 well plate, 200 μL of 0.1 M potassium phosphate buffer (pH6.5), 20 μL of sample, 20 μL of 2 KU/mL tyrosinase, and 60 μL of 1.0 mM tyrosine were sequentially added and reacted at 37° C. for 10 minutes.
# After the reaction, absorbance was measured at 490 nm using a plate reader.
# [3] = Antioxidant efficacy test, DTNB assay (sulfhydryl group determination) of GSH stored at 37° C.; details: day 16, storage at 37° C.; final 125 μM GSH, 1.25 μM aptamin G; n=5
# Description: In this experiment, the final concentration of each component was 125 μM GSH and 1.25 μM aptamin G.
# The prepared aptamer (100:1) of the prepared aptamer (100:1) of 250 μM GSH and 2.5 μM was dissolved in the 3th distilled water for 30 minutes at room temperature.
# The above GSH-Aptamin G complex was stored for a certain period of time under severe conditions (37° C.), and samples were obtained every 4 days and measured for 16 days.
# Just before the sample measurement, 10 mm DTNB (4 mg/ml, buffer: 0.1 M potassium Phosphate buffer, pH 8.0) was prepared to mix the sample (50 μL) of DTNB solution and shaking incubation.
# After the reaction, the UV Absorbance value was measured at 412 nm and REF wavelength 605 nm using the Plate Reader.
Structure (SMILES),inhibition of tyrosinase activity (cell test) [1],inhibition of the activity of tyrosinase [2],amount of GSH remaining unoxidized [3]
OC[C@H]1O[C@@H](Oc2ccc(O)cc2)[C@H](O)[C@@H](O)[C@@H]1O [Arbutin],about 25%,,
"N[C@@H](CCC(=O)N[C@@H](CS)C(=O)NCC(=O)O)C(=O)O [GSH, Glutathione]",tendency not to inhibit the activity of tyrosinase,about 75%,about 60%
